One experiment has as its target T1, human MTAP (Homo sapiens, UniProt Q13126).
T1 sequence (Q13126 1-283): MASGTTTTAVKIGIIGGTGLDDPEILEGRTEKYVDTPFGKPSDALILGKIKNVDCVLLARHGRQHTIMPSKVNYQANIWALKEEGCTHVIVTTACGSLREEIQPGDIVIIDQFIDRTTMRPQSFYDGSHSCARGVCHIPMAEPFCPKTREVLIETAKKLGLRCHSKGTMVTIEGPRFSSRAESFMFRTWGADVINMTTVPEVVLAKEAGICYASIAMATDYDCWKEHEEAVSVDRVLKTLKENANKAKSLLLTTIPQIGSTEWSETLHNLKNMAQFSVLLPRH
Kind of experiment: Inhibition assay of MTAP. Format: biochemical. The conditions noted are these: for binding to the catalytic site of MTAP: at concentrations of 5 μM inhibitor.

In a further experiment the target is T2, HpMTAN (Helicobacter pylori, UniProt Q9ZMY2).
T2 sequence (Q9ZMY2 1-230): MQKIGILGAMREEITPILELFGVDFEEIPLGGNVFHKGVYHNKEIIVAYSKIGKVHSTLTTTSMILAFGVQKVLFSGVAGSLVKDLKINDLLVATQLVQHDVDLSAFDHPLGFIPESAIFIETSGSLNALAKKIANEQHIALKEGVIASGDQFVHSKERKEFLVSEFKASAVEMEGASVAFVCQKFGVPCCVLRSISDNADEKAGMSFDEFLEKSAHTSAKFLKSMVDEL
Kind of experiment: Inhibition assay of HpMTAN. Format: biochemical. The conditions noted are these: for binding to the catalytic site of HpMTAN: at concentrations of 5 μM inhibitor; for preference for HpMTAN (specificity ratio Kd Hs/Hp): affinity for human MTAP relative to HpMTAN.

Molecules are shown by their SMILES. Bounds are passed on as bounds.

What is called Kd is the equilibrium constant for the complex coming apart. Higher therefore signals weaker binding.

As for `CSC[C@H]1CN(Cc2c[nH]c3c(=O)[nH]ccc23)C[C@@H]1O` [compound 35], the “binding to the catalytic site of MTAP” value on human MTAP was “eliminates binding”. Besides, at HpMTAN, the “binding to the catalytic site of HpMTAN” value is “eliminates binding”.

Regarding `C#CCCCSC[C@H]1CN(Cc2c[nH]c3c(N)ncnc23)C[C@@H]1O` [compound 16], on HpMTAN, the Kd was 0.026 to 0.055 nM and the “preference for HpMTAN (specificity ratio Kd Hs/Hp)” value is listed as 12- to 36 fold.

For the compound `Nc1ncnc2c(CN3C[C@H](CSCCCc4cn(Cc5ccccc5)nn4)[C@@H](O)C3)c[nH]c12` [compound 32], at HpMTAN, the Kd was 0.026 to 0.055 nM.

As for `CSC[C@H]1CN(Cc2c[nH]c3c(N)nccc23)C[C@@H]1O` [compound 8, 3-deazaMTDIA], on human MTAP (compared with 1 (86 pM)), the “increase of dissociation constant relative to MTDIA (1), MTAP” value is on record as greater than 100 fold. At HpMTAN (compared with 1 (86 pM)), the “increase of dissociation constant relative to MTDIA (1), HpMTAN” value is greater than 100 fold.

For the compound `C#CCSC[C@H]1CN(Cc2c[nH]c3c(N)ncnc23)C[C@@H]1O` [compound 15], on HpMTAN, the Kd is 0.026 to 0.055 nM and the “preference for HpMTAN (specificity ratio Kd Hs/Hp)” value is 12- to 36 fold.

The compound `CCCCn1cc(CCCSC[C@H]2CN(Cc3c[nH]c4c(N)ncnc34)C[C@@H]2O)nn1` [compound 30] registered a Kd on HpMTAN of 0.026 to 0.055 nM.

On to `O=c1[nH]ccc2c(CN3C[C@H](CO)[C@@H](O)C3)c[nH]c12` [compound 34], for which the “binding to the catalytic site of MTAP” value at human MTAP was “eliminates binding”. In addition, the “binding to the catalytic site of HpMTAN” value on HpMTAN is “eliminates binding”.
